Measured values: patent US4894460A (Pierrel S.p.A., priority 1982, dated 1990)
Where two headings read alike, the source gives them in different places.

Tests used:
in vivo = conditions: mouse, iv, mice, i.v. in dimethylsulfoxide, after seven days, Litchfield and Wilcoxon
Description: Intravenous Toxicity in Mice
Male CD1 mice from Charles River (Italy), weighing 25 g were used. Compounds were administered intravenously (i.v.), dissolved in dimethylsulfoxide, and the volume of administration was 0.01 ml per 10 g of body weight. The LD50 after seven days, was calculated according to the method of Litchfield and Wilcoxon (Experimental Therapeutics 96, 99 (1949)).

taenia coli = assay: Antagonistic activity to calcium in the taenia coli of guinea pigs (CaCl2-induced contractions, in vitro); type: cell-based, Hartley albino guinea pigs; conditions: Cavia porcellus, 10 min, read-out: Calcium antagonistic activity in vitro ED50
Description: Antagonistic Activity to Calcium in the Taenia Coli of Guinea Pigs
Hartley albino guinea pigs of average weight 450 g were used. The calcium antagonistic activity was determined stimulating the taenia coli, previously depolarized, with a single submaximal concentration of CaCl2 (10^-3 M), at intervals of 20 minutes (according to the method Naunyn Schmied. Arch. Pharmacol. 318, 235 (1982)). The products were left in contact with the preparation for 10 minutes. The ED50 were calculated from the percentage of maximum inhibition.

[1] = system: Spontaneous Hypertensive Rats (SHR); assay: Hypotensive activity in spontaneous hypertensive rats (SHR); type: in vivo, Male SHR (Okamoto) rats; conditions: Rattus norvegicus, po, p.o. in 0.4% carboxymethyl cellulose, systolic arterial pressure, read-out: Hypotensive activity in SHR ED^SABP -25%
Description: Hypotensive Activity in Spontaneous Hypertensive Rats (SHR)
Male SHR (Okamoto), of 70-100 days of age were used. The systolic arterial pressure (SABP) was determined by applying to the tail of the animal a pressure transducer with a sleeve connected to a BP-Recorder (W-W Electronic of Basel). The animals were previously warmed to 39° C. for a period of 15-20 minutes in a ventilated chamber.
The rats were previously trained to the registration for 1-2 days prior to the start of the experiment which consisted of a basic registration, the pharmacological treatment and then of subsequent registrations one hour and three hours after the treatment.
All the products were administered orally (p.o.), suspended in 0.4% carboxymethyl cellulose (Methocel); the volume of vehicle was 2 ml per kg.
The compounds of formula (I) were tested at three dose levels and the value of ED-25% was determined.

SMILES	LD50 at 168 h (in vivo) [mg/kg]	IC50 (taenia coli; guinea pig taenia coli, depolarized, CaCl2 10^-3 M, 10 min contact, from maximum inhibition) [nM]	ED (25%) [1] [mg/kg]	IC50 (taenia coli) [nM]
COC(=O)C1=C(C)NC(C)=C(C(=O)OCCN2CCN(c3ccc(OC)cc3)CC2)C1c1cccc([N+](=O)[O-])c1 (stereo not drawn) [0266B]	22.7	3.6	10.7	–
COC(=O)C1=C(C)NC(C)=C(C(=O)OCCN2CCN(c3ccc([N+](=O)[O-])c(C(F)(F)F)c3)CC2)C1c1cccc([N+](=O)[O-])c1 (stereo not drawn) [0296C, 2-[4-(3-Trifluoromethyl-4-nitrophenyl)]piperazinoethyl-2,6-dimethyl-4-(3-nitrophenyl)-5-methoxycarbonyl-1,4-dihydropyridine-3-carboxylate]	55	–	87	19
